Laboratory results from US20080031968A1, “Methods for increasing cellular energy expenditure” (priority 2005, published 2008).

How the values were obtained:
BAT of C57BL/6J mice = assay: BAT gene expression by microarray and Q-RT-PCR; format: in vivo, mouse; details: GW4064 treatment
Method: For microarray analysis, RNA was isolated from BAT using the RNeasy mini kit (QIAGEN, Courtaboeuf, France). Equal amounts of RNA from mice in each group were pooled (n=3 or 4 mice) and used for cDNA synthesis. After second-strand cDNA synthesis (Life Technologies, Cergy Pontoise, France), in vitro transcription was performed with biotinylated UTP and CTP (Enzo Diagnostics, Farmingdale, N.Y.). Fragmented cRNA samples were hybridized to the Affymetrix MOE430A microarray. The raw data was analyzed using the Microarray Suite Software version 5.0 (MAS5.0, Affymetrix, Santa Clara, Calif.).

ob/ob mice = assay: GW4064 treatment of ob/ob mice, serum TG; format: in vivo, mouse; details: chow-fed ob/ob mice, 1 week, intraperitoneal 10 mg/kg daily
Method: Male C57BL/6J, KK-Ay, and ob/ob (C57BL/6J background) mice, 6-10 weeks of age, were obtained from Elevage Janvier (Le Genest St. Isle, France), CLEA Japan Inc. (Tokyo, Japan), and The Jackson Laboratory (Bar Harbor, Me., USA), respectively. All mice were maintained in a temperature-controlled (23° C.) facility with a 12-hour light/dark cycle and were given free access to food and water. The study protocols were approved by the institutional review boards. The body weight and food intake were measured every second day. The control and high-fat diet was obtained from UAR (Villemoisson sur Orge, France). The control diet (EQ12310) contained 16.8% protein, 73.5% carbohydrate, and 4.8% fat, whereas the high-fat diet (EQ/ID12309) contained 23.0% protein, 35.5% carbohydrate, and 35.9% fat. For treatment with bile acids, mice were fed diets with 0.5% (w/w) CA. The mice were fasted 4 hours before harvesting blood for subsequent lipid measurements, and tissues for RNA isolation, lipid measurements, and histology. Male SHP−/−mice and littermate SHP+/+ controls (C57/BL6-A129/SvJ mixed strain) of 8 weeks were fed the CA diet as just described or gavaged with GW4064 dissolved in corn oil at 30 mg/kg. […]
Serum total cholesterol, TGs, and lipoprotein cholesterol and TG profiles were measured as described (Rocchi, et al., Mol Cell. 8:737-747 (2001); Picard, et al., Cell 111:931-941 (2002)). […]

C57BL/6J mice = assay: Diet-induced obesity in C57BL/6J mice; format: in vivo, mouse
Method: Male C57BL/6J and KK-Ay mice, 6-7 weeks of age, were obtained from Charles River Laboratories France (l'Arbresle, France) and CLEA Japan Inc. (Tokyo, Japan), respectively. […] All mice were maintained in a temperature-controlled (23° C.) facility with a 12 h light/dark cycle and were given free access to food and water. The control and high-fat diet was obtained from UAR (Villemoison surOrge, France). […] GW4064 was suspended in peanut oil and mixed with the high fat diet at a concentration of 180 mg per kg of food. […] The mice were fasted 4 h before harvesting blood for subsequent blood measurements, and tissues for RNA isolation, lipid measurements and histology. Oxygen consumption was measured using the Oxymax apparatus (Columbus Instruments, Columbus, Ohio).
(§1) An OGTT was performed in animals that were fasted overnight. Glucose was administered by gavage at a dose of 2 g/kg. An IPITT was done in 4 h fasted animals. Insulin was injected at a dose of 0.75 U/kg. Glucose quantification was done with the Maxi Kit Glucometer 4 (Bayer Diagnostic, Puteaux, France) or Glucose RTU (bioMérieux Inc., Marcy l'Etoile, France). Plasma insulin concentrations were measured using ELISA (Cristal Chem Inc., Downers Grove, Ill.). Nonesterified fatty acids, triglycerides, ketone bodies, BA and total cholesterol were determined by enzymatic assays (Roche, Mannheim, Germany). cAMP was measured using the cAMP-Screen system (Applied Biosystems, Bedford, Mass.).
Pieces of mouse tissues were fixed in Bouin's solution, dehydrated in ethanol, embedded in paraffin, and cut at a thickness of 5 μm. Sections were deparaffinized, rehydrated, and stained with haematoxylin and eosin. Transmission electron microscopy was then performed.

rats = rats treated for 7 days; cited from earlier work
HSMM [1] = assay: D2 activity in human skeletal muscle myoblasts; format: cell-based; details: 16 h incubation
Method: HSMM were obtained from Cambrex (Walkersville, Md.) and were cultured according to the suppliers instructions. D2 activity measurements were performed after a 16 h incubation with the indicated compounds. For the cAMP measurements, cells were preincubated 12 h in Opti-MEM (Life Technologies, Cergy Pontoise, France), supplemented with 1 mM IBMX. Then medium was changed and cells were incubated for another 1 h in Opti-MEM with 1 mM IBMX, after which the medium was replaced for Opti-MEM with 1 mM IBMX and the indicated compounds. After 30 minutes the cells were lysed for cAMP analysis.

SHP+/+ and SHP-/- mice = assay: FXR agonists in SHP+/+ and SHP-/- mice; format: in vivo, mouse; details: for hepatic expression of SREBP-1c, ME, CYP7A1 and ANGPTL3: 1-day treatment
Method: (§2) Male C57BL/6J, KK-Ay, and ob/ob (C57BL/6J background) mice, 6-10 weeks of age, were obtained from Elevage Janvier (Le Genest St. Isle, France), CLEA Japan Inc. (Tokyo, Japan), and The Jackson Laboratory (Bar Harbor, Me., USA), respectively. All mice were maintained in a temperature-controlled (23° C.) facility with a 12-hour light/dark cycle and were given free access to food and water. The study protocols were approved by the institutional review boards. The body weight and food intake were measured every second day. The control and high-fat diet was obtained from UAR (Villemoisson sur Orge, France). […] The mice were fasted 4 hours before harvesting blood for subsequent lipid measurements, and tissues for RNA isolation, lipid measurements, and histology.

KK-Ay mice [2] = assay: CA or GW4064 treatment of KK-Ay mice, serum lipids; format: in vivo, mouse; details: chow-fed KK-Ay mice, 1 week, intraperitoneal 10 mg/kg daily
Method: as §2
For measurement of liver TGs and cholesterol content, a liver was homogenized in chloroform/methanol (2:1 v/v) using a Polytron tissue grinder (Kinematica AG, Luzern, Switzerland). Lipid extracts were prepared by the classical Folch method. Extracts were dried under N2 flow and resuspended in isopropanol.

BAT cells = assay: Isolated mouse BAT cells, D2 mRNA, D2 activity and cAMP; format: cell-based; details: BAT cells
Method: as §1

KK-Ay mice [3] = assay: In vivo VLDL TG production (Tyloxapol) in KK-Ay mice; parameters: species or system mouse; details: 1-week administration of GW4064
HSMM [4] = assay: cAMP levels in human skeletal muscle myoblasts; format: cell-based; details: 1 mM IBMX, 30 minutes
Method: HSMM were obtained from Cambrex (Walkersville, Md.) and were cultured according to the suppliers instructions. […] For the cAMP measurements, cells were preincubated 12 h in Opti-MEM (Life Technologies, Cergy Pontoise, France), supplemented with 1 mM IBMX. Then medium was changed and cells were incubated for another 1 h in Opti-MEM with 1 mM IBMX, after which the medium was replaced for Opti-MEM with 1 mM IBMX and the indicated compounds. After 30 minutes the cells were lysed for cAMP analysis.

## CC(C)c1onc(-c2c(Cl)cccc2Cl)c1COc1ccc(/C=C/c2cccc(C(=O)O)c2)c(Cl)c1 [GW4064]
BAT of C57BL/6J mice
  thermogenic gene response: did not result in an induction
ob/ob mice
  serum TG levels: potently lowered
C57BL/6J mice; high fat diet supplemented with GW4064, 15 mg/kg daily
  effect against diet-induced obesity: no protective effect
C57BL/6J mice; mice on a high fat diet with GW4064
  body weight gain: significantly increased
rats
  plasma TG: decreased
HSMM [1]
  D2 activity: did not induce
SHP+/+ and SHP-/- mice; SHP+/+ mice, 0, 3 and 7 days
  serum TGs: significantly lowered
SHP+/+ and SHP-/- mice; SHP+/+ mice
  hepatic expression of SREBP-1c, ME, CYP7A1 and ANGPTL3: significantly reduced
SHP+/+ and SHP-/- mice; SHP-/- mice
  decrease in serum TGs: completely abolished
  hepatic expression of SREBP-1c, ME, CYP7A1 and ANGPTL3: no decrease
KK-Ay mice [2]
  serum TG levels: potently lowered
BAT cells
  cAMP levels: did not increase
KK-Ay mice [3]
  VLDL secretion: significantly lowered
HSMM [4]
  cAMP levels: did not increase
